pIC50, pKi: −log10 of the molar value. ≈ marks a conversion by molar mass, not a printed value.
Assays:
[1] = target: T1, Glutathione S-transferase omega-1 (Homo sapiens, UniProt P78417); experiment: Inhibition of recombinant GSTO1-1 (unknown origin) expressed in Escherichia coli using S-(4-nitrophenacyl)glutathione as substrate preincubated for 2 mins followed by substrate addition by 4-NPG assay
T1 sequence (P78417 whole entry): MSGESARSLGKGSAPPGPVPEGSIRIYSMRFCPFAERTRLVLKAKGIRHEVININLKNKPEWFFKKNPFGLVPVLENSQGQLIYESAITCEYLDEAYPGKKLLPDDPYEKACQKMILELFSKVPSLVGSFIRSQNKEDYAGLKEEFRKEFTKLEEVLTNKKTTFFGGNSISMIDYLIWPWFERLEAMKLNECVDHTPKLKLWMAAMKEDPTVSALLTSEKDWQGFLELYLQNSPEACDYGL

[2] = target: T2, Glutathione S-transferase omega-1 (Mus musculus) (UniProt O09131); experiment: Inhibition of GSTO1-1 in mouse bone marrow derived macrophage cells assessed as reduction in LPS-induced IL-1beta release by measuring IL1 beta level at 5 uM pretreated with LPS for 3 hrs followed by compound addition and measured after 1 hr by ELISA relative to control; set-up: scale not given: the % may be the effect or the level left
T2 sequence (whole entry): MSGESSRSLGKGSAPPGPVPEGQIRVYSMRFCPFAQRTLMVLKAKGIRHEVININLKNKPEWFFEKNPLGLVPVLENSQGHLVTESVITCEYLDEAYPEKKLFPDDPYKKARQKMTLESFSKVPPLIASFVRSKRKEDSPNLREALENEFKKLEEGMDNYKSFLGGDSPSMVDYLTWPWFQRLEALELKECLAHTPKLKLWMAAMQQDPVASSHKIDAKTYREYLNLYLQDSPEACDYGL

[3] = target: T1, Glutathione S-transferase omega-1; experiment: Inhibition of recombinant GSTO1-1 (unknown origin) expressed in Escherichia coli assessed as inhibitor constant using S-(4-nitrophenacyl)glutathione as substrate preincubated for 1 to 6 mins followed by substrate addition by spectrophotmetric analysis
[4] = target: T3, Glutathione S-transferase omega-1 (Homo sapiens) (UniProt P78417)
T3 sequence (whole entry): T1 sequence (P78417 whole entry)
Description: Inhibition of recombinant GSTO1-1 (unknown origin) expressed in Escherichia coli assessed as Kinact using S-(4-nitrophenacyl)glutathione as substrate preincubated for 1 to 6 mins followed by substrate addition by spectrophotmetric analysis

[5] = Drug level in Swiss mouse plasma at 30 mg/kg, ip after 5 mins by UPLC-MS analysis; assay type: ADME, organism-based
[6] = Drug concentration in Swiss mouse plasma at 30 mg/kg, ip measured up to 2 hrs post dose by UPLC-MS analysis; assay type: ADME, organism-based
[7] = Cmax in Swiss mouse at 30 […], ip measured at 5 mins post dose by UPLC-MS analysis; assay type: ADME, organism-based; set-up: route intraperitoneal; conditions: in vivo
[8] = Half life in Swiss mouse at 30 mg/kg, ip after 0.083 to 24 hrs by UPLC-MS analysis; assay type: ADME, organism-based; conditions: in vivo
[9] = Drug concentration in Swiss mouse plasma at 30 mg/kg, ip measured up to 4 hrs post dose by UPLC-MS analysis; assay type: ADME, organism-based
[10] = Half life in human liver microsomes at 1 uM incubated for 60 mins in presence of NADPH by UPLC-MS analysis; assay type: ADME, Microsome
[11] = Half life in mouse liver microsomes at 1 uM incubated for 60 mins in presence of NADPH by UPLC-MS analysis; assay type: ADME, Microsome
[12] = Stability in human liver microsomes assessed as drug degradation at 1 uM incubated for 60 mins in absence of NADPH by UPLC-MS analysis; assay type: ADME, Microsome; conditions: 1 h
[13] = Stability in mouse liver microsomes assessed as drug degradation at 1 uM incubated for 60 mins in absence of NADPH by UPLC-MS analysis; assay type: ADME, Microsome; conditions: 1 h
[14] = Drug concentration in Swiss mouse plasma at 30 mg/kg, ip measured at 1 hr post dose by UPLC-MS analysis; assay type: ADME, organism-based
[15] = Kinetic solubility of compound in water after 30 mins by nephelometry; assay type: physicochemical; conditions: read-out: Kinetic_solubility
[16] = Kinetic solubility of compound in pH 7.4 phosphate buffer solution after 30 mins by nephelometry; assay type: physicochemical; conditions: read-out: Kinetic_solubility

Structure (SMILES)	pIC50 [1]	Activity [2] [%]	other results
COCCCN(C)S(=O)(=O)c1cc(NC(=O)CCl)ccc1Cl	6.80	41.5	
COCCCNS(=O)(=O)c1cc(NC(=O)CCl)ccc1Cl	6.96		pKi [3]: 5.00; Kinact [4]: 1.3 min⁻¹
CN(C)S(=O)(=O)c1cc(NC(=O)CCl)ccc1OC(F)(F)F	6.68		
CC(=O)C(=O)Nc1ccc(Cl)c(S(=O)(=O)N(C)C)c1	< 5.00		
COCCN(C)S(=O)(=O)c1cc(NC(=O)CCl)ccc1Cl	7.10	61.3	pKi [3]: 5.16; Kinact [4]: 0.61 min⁻¹
CC(C)NS(=O)(=O)c1cc(NC(=O)CCl)ccc1Cl	7.15	36	pKi [3]: 5.32; Kinact [4]: 3 min⁻¹
CN(C)S(=O)(=O)c1cc(NC(=O)CCl)ccc1-c1ccccc1	6.15		
CN(C)S(=O)(=O)c1cc(NC(=O)CC#N)ccc1Cl	< 4.00		
CC(Cl)C(=O)Nc1ccc(Cl)c(S(=O)(=O)N(C)C)c1 (stereo not given)	< 5.00		
CN(C)S(=O)(=O)c1cc(NCC#N)ccc1Cl	< 4.00		
CN(C)S(=O)(=O)c1cc(CC2CO2)ccc1Cl (stereo not given)	< 4.00		
CN(C)S(=O)(=O)c1cc(NC(=O)CCCl)ccc1Cl	< 5.00		
CN(C)S(=O)(=O)c1cc(NC(=O)CCl)ccc1Br	6.82		
CN(C)S(=O)(=O)c1cc(NC(=O)CF)ccc1Cl	< 4.00		
O=C(CCl)Nc1ccc(Cl)c(S(=O)(=O)NC2CCOC2)c1 (stereo not given)	6.47		
CN(C)S(=O)(=O)c1cc(/C=C/S(=O)(=O)F)ccc1Cl	< 5.00		
CN(C)S(=O)(=O)c1cc(NC(=O)CCl)ccc1I	6.89		

Structure (SMILES)	pIC50 [1]	Activity [2] [%]	other results
CNS(=O)(=O)c1cc(NC(=O)CCl)ccc1Cl	6.24		
CN(C)S(=O)(=O)c1cc(C2CO2)ccc1Cl (stereo not given)	5.92	43.7	pKi [3]: 5.30; Kinact [4]: 0.47 min⁻¹
O=C(CCl)Nc1ccc(Cl)c(S(=O)(=O)NCCO)c1	6.15		
CN(C)S(=O)(=O)c1cc(NC(=O)C(N)=O)ccc1Cl	< 3.00		
CN(C)S(=O)(=O)c1cc(NC(=O)CCl)ccc1C(F)(F)F	7.22	27.5	concentration at 5 min [5]: 11.6 µM; pKi [3]: 5.92; concentration at 2 h [6]: 0.0015 µM; Kinact [4]: 1.1 min⁻¹
COCCNS(=O)(=O)c1cc(NC(=O)CCl)ccc1Cl	7.52	47.8	pKi [3]: 5.60; Kinact [4]: 0.8 min⁻¹
CN(CCO)S(=O)(=O)c1cc(NC(=O)CCl)ccc1Cl	6.74		
O=C(CCl)Nc1ccc(C(F)(F)F)c(S(=O)(=O)N2CCOCC2)c1	6.60	3.4	pKi [3]: 6.21; Cmax [7]: 6.37 µM; half-life [8]: 84 min; concentration at 4 h [9]: 0.0065 µM; Kinact [4]: 0.85 min⁻¹
CN(C)S(=O)(=O)c1cc(CS(=O)(=O)F)ccc1Cl	6.10	39.8	pKi [3]: 5.02; Kinact [4]: 2.3 min⁻¹
CN(C)S(=O)(=O)c1cc(CCS(=O)(=O)F)ccc1Cl	< 5.00		
O=C(CCl)Nc1ccc(Cl)c(S(=O)(=O)NCC2CCCO2)c1 (stereo not given)	6.70		
C=CC(=O)Nc1ccc(Cl)c(S(=O)(=O)N(C)C)c1		92.8	
C/C=C/C(=O)Nc1ccc(Cl)c(S(=O)(=O)N(C)C)c1	< 4.00		
CN(C)S(=O)(=O)c1cc(CCCS(=O)(=O)F)ccc1Cl	5.49		
CN(C)S(=O)(=O)c1cc(NC(=O)CCl)ccc1Cl		66.8	half-life at 1 µM [10]: < 2 min; half-life at 1 µM [11]: 7 min; Stability [12]: Unstable; Stability [13]: Unstable; Cmax [7]: 9.38 µM; concentration at 1 h [14]: 0.0321 µM; solubility kinetic at 0.5 h [15]: 0.05 to 0.1 mg/mL (≈ 161 to 321 µM); solubility kinetic at 0.5 h [16]: 0.05 to 0.1 mg/mL (≈ 161 to 321 µM)
O=C(CCl)Nc1ccc(Cl)c(S(=O)(=O)N2CCOCC2)c1	6.80	24.3	concentration at 5 min [5]: 3.87 µM; pKi [3]: 5.17; concentration at 1 h [14]: 0.0071 µM; Kinact [4]: 8.1 min⁻¹

— ChEMBL document CHEMBL4402572, “Development of Benzenesulfonamide Derivatives as Potent Glutathione Transferase Omega-1 Inhibitors” (J Med Chem, 2020)
